The subject of one series is patients with MDD. The note with it: cited from earlier work.
For series [1], the system named is human volunteers and patients. The following applies: cited from earlier work.
Series [2] addresses NR1A/2A subtype of the NMDA receptor (Homo sapiens, UniProt Q05586+Q12879). The following applies: cited from earlier work.
In series [3] the test system is patients with depression (poor responders to medications used in the treatment of depression). Nature of the series: Phase II study in depression, MADRS response by GABR-A2 SNP genotype. The class given is in vivo, human. The note with it: for Additive genetic effect of minor allele on change in MADRS total score: treatment group. The text has this: Genomic DNA samples were collected from individuals enrolled in a Phase 11 study of COMPOUND A (total number of patients in the study was 152). The Phase II study was designed to measure the efficacy of COMPOUND A in the treatment of depression. Patients were selected for enrolment in the aforementioned Phase II study on the basis of their prior treatment history which defined them as poor responders to medications used in the treatment of depression. Common genetic variations (single nucleotide polymorphisms, SNPs) in genes encoding brain derived neurotrophic factor (BDNF) and the alpha-2 subunit of the GABAA receptor (GABR-A2) were tested using TaqMan® assays to measure their influence on the response to treatment for depression with COMPOUND A (an N-methyl-D-aspartate (NMDA) antagonist). Montgomery-Åsberg Depression Rating Scale (MADRS; Montgomery SA, Asberg M (April 1979). “A new depression scale designed to be sensitive to change”. British Journal of Psychiatry 134 (4): 382-89) was used as a measurement of treatment response. Thirty-two SNPs were selected for genotyping in GABR-A2 and six SNPs in BDNF.
However, the results from the GABR-A2 gene did indicate an influence on change in MADRS from baseline for a number of SNPs, with the rs3756007 SNP showing the strongest association. Table 1 lists those genetic variations tested for which, on average, the minor allele positively influenced change in MADRS after treatment with COMPOUND A. The P value from the patients treated with the drug (treatment group) is also shown (therapeutic_pvalue).
TaqMan® assays were used to detect the particular SNPs within the target genes. Each TaqMan® assay is specific for a given mutation or allele, i.e. designed to detect an alternate base relative to another base at a given position. each TaqMan® assay contains sequence-specific forward and reverse primers to amplify the polymorphic sequence of interest in the target gene along with TaqMan® probes labelled with different fluorescent tags to identify the target base (SNP). The TaqMan® assays were ordered from Applied Biosystems® and where possible Pre-Designed SNP Genotyping Assays were used. Each of the GABR-A2 SNPs showing association with an influence on the response to treatment for depression with COMPOUND A were detected using the commercially available Pre-Designed SNP Genotyping Assays.
For each SNP assay, genomic DNA was extracted from the clinical sample and the TaqMan® assay was carried out using the primers in Table 2. For the TaqMan® reaction approximately 10 ng of genomic DNA was used, in a total reaction volume of 2 ul. The reaction used TaqMan® Genotyping Master Mix (Applied Biosystems®, part number 4381657). The TaqMan® Genotyping Master Mix was diluted 1:1 with deionised water and the TaqMan® assay used at 80× concentration. The reaction was then securely sealed before Thermal Cycling. Cycle conditions: 95° C. for 10 minutes followed by 40 cycles of 92° C. for 15 seconds, 60° C. for 60 seconds in a Thermal Cycler instrument (KBiosystems DT-108 Thermal Cycler). The plate was then analysed on the Applied Biosystems® 7900HT Sequence Detection System using the pre-programmed “Allelic Discrimination” analysis in the Applied Biosystems® SDS v2.4 Software.

The structures appear in SMILES notation.

Chain of NR1A/2A subtype of the NMDA receptor (Q12879 23-1464, other chains not shown): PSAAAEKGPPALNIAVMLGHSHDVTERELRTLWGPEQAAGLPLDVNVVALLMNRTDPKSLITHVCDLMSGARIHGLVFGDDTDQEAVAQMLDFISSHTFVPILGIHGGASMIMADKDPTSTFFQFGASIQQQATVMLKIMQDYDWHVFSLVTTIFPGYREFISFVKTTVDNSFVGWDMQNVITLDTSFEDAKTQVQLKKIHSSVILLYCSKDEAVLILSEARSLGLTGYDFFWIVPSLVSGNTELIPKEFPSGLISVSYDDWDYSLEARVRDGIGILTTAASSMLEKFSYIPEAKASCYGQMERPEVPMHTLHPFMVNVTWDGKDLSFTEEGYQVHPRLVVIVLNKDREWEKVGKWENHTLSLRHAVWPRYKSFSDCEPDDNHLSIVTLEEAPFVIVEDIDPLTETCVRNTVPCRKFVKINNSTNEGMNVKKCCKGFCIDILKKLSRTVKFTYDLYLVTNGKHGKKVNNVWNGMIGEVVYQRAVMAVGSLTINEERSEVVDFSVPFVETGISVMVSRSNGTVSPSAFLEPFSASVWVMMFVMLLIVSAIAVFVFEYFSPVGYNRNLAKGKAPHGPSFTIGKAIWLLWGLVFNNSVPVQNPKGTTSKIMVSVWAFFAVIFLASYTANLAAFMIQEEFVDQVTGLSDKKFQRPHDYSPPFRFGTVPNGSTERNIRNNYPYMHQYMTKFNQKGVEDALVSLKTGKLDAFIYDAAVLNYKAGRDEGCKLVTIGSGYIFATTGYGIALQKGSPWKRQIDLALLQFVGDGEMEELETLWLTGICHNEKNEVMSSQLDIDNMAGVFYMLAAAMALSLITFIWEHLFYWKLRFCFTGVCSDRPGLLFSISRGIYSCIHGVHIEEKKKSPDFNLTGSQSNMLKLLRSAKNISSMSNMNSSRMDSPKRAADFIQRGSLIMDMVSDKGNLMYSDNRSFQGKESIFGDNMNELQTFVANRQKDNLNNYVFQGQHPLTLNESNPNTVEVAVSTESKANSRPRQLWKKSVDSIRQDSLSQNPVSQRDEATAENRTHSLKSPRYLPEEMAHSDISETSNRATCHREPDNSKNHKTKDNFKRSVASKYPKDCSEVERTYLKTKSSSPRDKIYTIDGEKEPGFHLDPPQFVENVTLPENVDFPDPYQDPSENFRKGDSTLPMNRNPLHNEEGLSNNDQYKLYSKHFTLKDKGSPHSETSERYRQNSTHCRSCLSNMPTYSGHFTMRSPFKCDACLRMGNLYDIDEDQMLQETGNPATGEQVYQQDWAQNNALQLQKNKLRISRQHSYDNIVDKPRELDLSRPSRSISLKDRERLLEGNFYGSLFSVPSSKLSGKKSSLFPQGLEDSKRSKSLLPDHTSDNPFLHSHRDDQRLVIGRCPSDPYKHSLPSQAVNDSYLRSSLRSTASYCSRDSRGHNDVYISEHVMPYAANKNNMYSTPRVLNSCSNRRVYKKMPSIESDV

With `CNC1(c2ccccc2Cl)CCCCC1=O` (stereo not drawn) [ketamine], in the series with patients with MDD, the antidepressant effects result is “rapid antidepressant effects”.
`N[C@@H](Cc1ccccn1)c1ccccc1` [COMPOUND A, (S)-1-phenyl-2-(pyridin-2-yl)ethanamine]: the “propensity for causing psychotomimetic effects” value in series [1] (compared with effects found with ketamine exposure) is recorded as “little propensity”. Moreover, the tolerability result in series [1] (more than 500 human volunteers and patients) was “very well tolerated”. In addition, in series [2], the half-inhibitory concentration (IC50) – broadly, the point on the concentration scale where inhibition reaches its midpoint – is 350 nM. The “Additive genetic effect of minor allele on change in MADRS total score” value in series [3] (SNP rs1372472, minor allele T, therapeutic P value 0.0108) is −4.83; in series [3] (SNP rs3756007, minor allele C, therapeutic P value 0.0021) it was −12.84; in series [3] (SNP rs11503016, minor allele T, therapeutic P value 0.0374), −5.33; in series [3] (SNP rs17537359, minor allele C, therapeutic P value 0.0038), −9.40. Also, the “improvement in minor allele carriers versus major allele homozygote” value in series [3] (minor allele at rs3756007, rs11503016, rs17537359 and rs1372472, on average) is on record as “greater improvement”.

The values are drawn from patent US20150057317A1, “GABR-A2 DIAGNOSTIC” (AstraZeneca AB, priority 2011, published 2015).
